Laboratory results from publication PMC6764291 (Frontiers in Oncology, 2019).
Entries after “also recorded” stand apart in the source; their conditions may differ. Read-outs that look alike come from different tables or passages of the source.

Key:
[1] = system: UM-SCC-74A; assay: XTT cell viability, UM-SCC-74A; type: cell-based, human
Experimental: (§1) The human squamous cell carcinoma cell lines UM-SCC-74A and UM-SCC-74B were kindly provided by Professor TE Carey (University of Michigan, USA) and cultured in Dulbecco's Modified Eagle Medium (DMEM) with 10% fetal bovine serum, 1% L-glutamine, 1% antibiotics (100 IU penicillin and 100 μg/ml streptomycin) as well as 1% non-essential amino acids (all from Biochrom Kg, Berlin, Germany). UT-SCC-45 (kindly provided by Dr. R. Grenman, Turku University Central Hospital, Finland) was cultured in DMEM with the abovementioned additives. HCT116 and A431 were purchased from American Type Culture Collection (Manassas, VA, USA). HCT116 was cultured in McCoy's modified Eagle medium with 10% fetal bovine serum, 1% L-glutamine and 1% antibiotics (100 IU penicillin and 100 μg/ml streptomycin) and A431 was cultured in Ham's F10 with the same additives. H314 was purchased from the European Collection of Authenticated Cell Cultures (Salisbury, UK) in DMEM/Ham's F12 (1:1) with the abovementioned additives. Cells were incubated at 37°C with 5% CO2, and cultivated for no longer than 2 months at a time.
(§2) Cells were irradiated using ^137Cs gamma-ray photons at a dose-rate of ~1 Gy/min (Best Theratronics Gammacell® 40Exactor, Springfield, USA).
(§3) Five-hundred to ten thousands cells were seeded in flat-bottomed 96-well plates and incubated for 48 h prior to irradiation with 2Gy. […] Cells were incubated at 37° for 4–5 days until 80–90% confluence had been obtained. A mix of XTT Activation Reagent and XTT Reagent was added according to the American Type Culture Collection 30–1011 K protocol (Manassas, VA, USA). Plates were incubated for up to 6 h at 37° and absorbance was measured by using a BioMark Microplate Reader (Bio-Rad Laboratories AB, Solna, Sweden).
(§4) GraphPad Prism version 6.07 (GraphPad Software, San Diego, USA) was used for data processing and analysis. p-values were determined using unpaired student's t-test for comparison between two groups or one-way ANOVA followed by Tukey's multiple comparisons test, with p < 0.05 (^*), p < 0.01 (^**), p < 0.001 (^***), and p < 0.0001 (^****). For XTT assays cell viability was normalized for irradiated and unirradiated samples separately. […] CDI ≤ 0.7 equaled significant synergistic effect, CDI ≤ 1 equaled additive effect and CDI > 1 equaled antagonistic effect ([29]).

[2] = system: HCT116; assay: XTT cell viability, HCT116; type: cell-based
Experimental: as §1, §2, §3, §4

[3] = system: A431; assay: XTT cell viability, A431; type: cell-based; details: n ≥ 4
Experimental: (§5) The human squamous cell carcinoma cell lines UM-SCC-74A and UM-SCC-74B were kindly provided by Professor TE Carey (University of Michigan, USA) and cultured in Dulbecco's Modified Eagle Medium (DMEM) with 10% fetal bovine serum, 1% L-glutamine, 1% antibiotics (100 IU penicillin and 100 μg/ml streptomycin) as well as 1% non-essential amino acids (all from Biochrom Kg, Berlin, Germany). UT-SCC-45 (kindly provided by Dr. R. Grenman, Turku University Central Hospital, Finland) was cultured in DMEM with the abovementioned additives. HCT116 and A431 were purchased from American Type Culture Collection (Manassas, VA, USA). […]
(§6) Five-hundred to ten thousands cells were seeded in flat-bottomed 96-well plates and incubated for 48 h prior to irradiation with 2Gy. […] Plates were incubated for up to 6 h at 37° and absorbance was measured by using a BioMark Microplate Reader (Bio-Rad Laboratories AB, Solna, Sweden).
(§7) GraphPad Prism version 6.07 (GraphPad Software, San Diego, USA) was used for data processing and analysis. p-values were determined using unpaired student's t-test for comparison between two groups or one-way ANOVA followed by Tukey's multiple comparisons test, with p < 0.05 (^*), p < 0.01 (^**), p < 0.001 (^***), and p < 0.0001 (^****). […]

[4] = system: UT-SCC-45; assay: XTT cell viability, UT-SCC-45; type: cell-based; details: n ≥ 4
Experimental: as §5, §6, §7

[5] = system: UM-SCC-74B; assay: Cell cycle analysis by flow cytometry, UM-SCC-74B; type: cell-based, human; details: for G2/M-phase / S-phase: viable cells, DAPI
Experimental: as §2
(§8) Cells were collected and fixed in 70% ethanol at 6, 12, 24, 48, 72, and 96 h post-irradiation and stored at −20°C. For cell cycle analyses, 6, 12, 24, and 48 h samples were rehydrated and washed twice with PBS and stained with DAPI (Sigma Aldrich Sweden, Stockholm, Sweden) using 1 μg/ml for 30 min. 24, 48, 72, and 96 h samples were stained with caspase-3 and Noxa (ab13847 (1:500) and ab13654 (1:1,000), AbCam, Cambridge, UK) overnight at 4°C, followed by incubation with fluorescent labeled secondary antibodies for 90 min (ab 1:400) at room temperature. Analyses were performed using a BD LSR Fortessa flow cytometer (Becton Dickinson Biosciences, San Jose, USA). Data analyses for cleaved caspase-3 and Noxa were performed with BD FACSDiVa (Becton Dickinson Biosciences, San Jose, USA), while cell cycle analyses of exclusively viable cells were performed using FlowJo (Becton, Dickinson Biosciences, San Jose, USA). Coefficient of variation (CV) values, were below seven for all samples.

[6] = system: p53; assay: Western Blot p53 expression, HCT116; type: cell-based; details: n ≥ 3
Experimental: as §2
(§9) Whole-cell lysates were prepared according to standard protocols. Protein concentrations were measured using a DeNovix DS-11 spectrophotometer (DeNovix Inc., Wilmington, DE, USA). Samples were separated on 4–12% Bis-Tris SDS gels and transferred to a nitrocellulose membrane (ThermoFisher Scientific, Uppsala, Sweden) by wet-transfer blotting. The membrane was blocked for 1 h in PBS with 5% BSA before incubation with primary antibodies targeting p53, caspase-3, NaK-ATPase and GLB1 (DO-1 (ab1101), ab13847, ab76020 and ab128993, AbCam, Cambridge, UK) and β-actin (A5441, Sigma Aldrich Sweden, Stockholm, Sweden) at 4°C overnight. After washing with PBS with 1% Tween-20, the membrane was incubated with respective and species-specific Horse Radish Peroxidase-labeled secondary antibody (ThermoFisher Scientific, Waltham, MA, USA) and stained with electro-chemiluminescent solution (Immobilon, Millipore, Bedford, USA).

[7] = system: cleaved caspase-3; assay: Western Blot cleaved caspase-3 expression, HCT116; type: cell-based
Experimental: as §2, §9

[8] = system: cleaved caspase-3; assay: Flow cytometry cleaved caspase-3, UM-SCC-74B; type: cell-based, human
Experimental: as §2, §8

[9] = system: p53^−/− tumors; details: mice, PM2 combined with radiotherapy; cited from earlier work
[10] = 20 μM PM2, 0 Gy, compared to untreated controls
[11] = Combination 2 Gy + 20 μM PM2, 6 h
[12] = Combination 2 Gy + 20 μM PM2, 12 h
[13] = Combination 2 Gy + 20 μM PM2, 24 h
[14] = Combination 2 Gy + 20 μM PM2, 48 h

CC(=O)N[C@H](C(=O)N[C@@H](CO)C(=O)N[C@@H](Cc1ccccc1)C(=O)N[C@]1(C)CCCCCCC=CCCC[C@@](C)(C(N)=O)NC(=O)[C@H](CC(C)C)NC(=O)[C@H](CC(C)C)NC(=O)[C@H](C)NC(=O)[C@H](Cc2c[nH]c3ccccc23)NC(=O)[C@H](Cc2ccc(O)cc2)NC(=O)[C@H](CCC(=O)O)NC1=O)[C@@H](C)O [PM2]
PM2 effect ([1]; 0–20 μM PM2, 0 Gy, wild-type p53, HPV negative, n ≥ 4): decreased significantly the viability and Yes | average viability reduction [1, 10]: 73% | lowest PM2 dose with significant decrease of viability ([1]; PM2 alone): ~ 10 μM | IC50 ([1]; PM2 alone (0 Gy), 4–5 days): 16 µM | Significant effect of combination ([1]; PM2 with 2 Gy EBRT, n ≥ 4): Yes | PM2 effect ([2]; 0–20 μM PM2, 0 Gy, wild-type p53, HPV negative, n = 6): decreased significantly the viability and Yes | average viability reduction [2, 10]: 75% | IC50 ([2]; PM2 added 3 h after 2 Gy EBRT, normalized to 2 Gy, 0 μM PM2, n = 6, read-out: IC50 of the combination treatment): 12 µM | lowest PM2 dose with significant decrease of viability ([2]; PM2 alone): ~ 10 μM | IC50 ([2]; PM2 alone (0 Gy), 4–5 days, n = 6, read-out: IC50 (cell viability)): 14 µM | Significant effect of combination ([2]; PM2 with 2 Gy EBRT, n = 6): Yes | PM2 effect ([3]; 0–20 μM PM2, 0 Gy, single base p53 mutation, HPV negative): did not affect and unaffected and No | Significant effect of combination ([3]; PM2 with 2 Gy EBRT): significantly decreased the viability and significant decrease in viability and Yes | PM2 effect ([4]; 0–20 μM PM2, 0 Gy, wild-type p53 (exon 4–8), HPV positive): unresponsive and No response and No | Significant effect of combination ([4]; PM2 with 2 Gy EBRT): unresponsive and No response and No | G2/M-phase ([5]; 20 μM PM2 alone, 6 h): 19.7% | S-phase ([5]; 20 μM PM2 alone, 6 h): 41.6% | G2/M-phase ([5]; 20 μM PM2 alone, 24 h): 16.7% | S-phase ([5]; 20 μM PM2 alone, 24 h): 12.9% | G2/M-phase ([5]; 20 μM PM2 alone, 48 h): 10.8% | S-phase ([5]; 20 μM PM2 alone, 48 h): 17.4% | S-phase reduction / depletion ([5]; 2 Gy + 20 μM PM2): S-phase reduction occurred as early as 12 h post-treatment; also recorded: S-phase depletion at 24 h post-treatment | G2/M-phase [5, 11]: 37.9% | S-phase [5, 11]: 42.9% | G2/M-phase [5, 12]: 39.4% | S-phase [5, 12]: 7.31% | G2/M-phase [5, 13]: 23.8% | S-phase [5, 13]: 2.89% | G2/M-phase [5, 14]: 20.6% | S-phase [5, 14]: 5.37% | p53 expression ([6]; 20 μM PM2, 24 h): increased expression of p53 | p53 expression, combination versus PM2 alone ([6]; 2 Gy + 20 μM PM2, 24 h): significant increase; also recorded: further increased wt p53 levels | increase in cleaved caspase-3 levels ([7]; 20 μM PM2, 96 h (representative blots), normalized to controls, n ≥ 3): three-fold | cleaved caspase-3 expression ([7]; 20 μM PM2-treated samples, n ≥ 3): increase in expression | cleaved caspase-3 expression, combination ([7]; 2 Gy + 20 μM PM2, n ≥ 3): predominant | cleaved caspase-3 expression ([8]; 20 μM PM2, 72 h): distinct increases | cleaved caspase-3 increase compared to controls ([8]; 20 μM PM2-treated, peak at 72 h, n ≥ 3): 40 fold | cleaved caspase-3, combination versus PM2 alone ([8]; 2 Gy + 20 μM PM2, p ≤ 0.05): significantly higher expression levels | effects on p53^−/− tumors [9]: negligible
